The text below walks through data of patent US20090000631A1, “Smoking articles and method for incorporating salts of lanthanide metals for reducing TPM cytotoxicity and targeted constituents in tobacco smoke” (Philip Morris USA Inc., priority 2007, published 2009).

SMILES strings stand for the structures.

The nature of series [1]: Relative phenolic and PAH contents of mainstream TPM by GC/MS (FTC smoking, 3rd and 4th puffs). As to conditions: change of relative content in mainstream TPM, tobacco treated with acetate salt alone. The source says: (§1) Under FTC conditions, the 3rd and 4th puffs of the mainstream TPM are collected. The relative phenolic and PAH contents are obtained by GC/MS methods. The TPM cytotoxicity data is obtained using the Neutral Red Uptake, while mutagenicity data is obtained using Ames assays.
(§2) Under FTC conditions, the 3rd and 4th puffs of the mainstream TPM are collected. The relative phenolic and PAH contents are obtained by GC/MS methods. The TPM cytotoxicity and mutagenicity data are obtained using Neutral Red Uptake and Ames assays, respectively.

The test system of a further series is TPM cytotoxicity. The series is described as follows: TPM cytotoxicity, Neutral Red Uptake. In kind it is cell-based. As to conditions: change of TPM cytotoxicity; tobacco treated with acetate salt alone; FTC, 3rd and 4th puffs.
Text: as §1, §2

The test system of another series is TPM mutagenicity. The series is described as follows: TPM mutagenicity, Ames assays. It counts as cell-based. As to conditions: for Mutagenicity: change of TPM mutagenicity, tobacco treated with acetate salt alone, FTC, 3rd and 4th puffs; for mutagenicity of the mainstream smoke (in words): mainstream smoke TPM of treated tobacco.
Text: as §1, §2
(In general: In the Ames test, an excess of revertant colonies over the control signals mutagenicity.)

Take `CC(=O)[O-].CC(=O)[O-].CC(=O)[O-].O.[Ce+3]` [7.4% Ce(OAc)3•H2O, Ce(OAc)3•H2O]: in series [1], the HQ is given as −23%, the Naphthalene was −47%, the catechol was −54% and the resorcinol result is “— (No significant change (absolute change <20%))”. Moreover, the Cytotoxicity result in the series on TPM cytotoxicity is listed as “— (No significant change (absolute change <20%))”. The Mutagenicity entry in the series on TPM mutagenicity is on record as “— (No significant change (absolute change <20%))”.

Consider `CC(=O)[O-].CC(=O)[O-].CC(=O)[O-].O.[Eu+3]` [8% Eu(OAc)3•H2O, Eu(OAc)3•H2O], for which, in series [1], the HQ is given as −39%, the Naphthalene is given as −54%, the catechol is recorded as −48% and the resorcinol was −33%. The Cytotoxicity entry in the series with TPM cytotoxicity was “— (No significant change (absolute change <20%))”. Further, in the series on TPM mutagenicity, the Mutagenicity was −21% and the “mutagenicity of the mainstream smoke (in words)” value (shortened to “mutagenicity … (in words)”) was “reduced”.

For `CC(=O)[O-].CC(=O)[O-].CC(=O)[O-].[La+3]` [8% La(OAc)3•xH2O (x ≦ 2), La(OAc)3•xH2O], in series [1], the HQ is −60%, the Naphthalene was −51%, the catechol was −41% and the resorcinol is reported as −56%. In the series with TPM cytotoxicity, the Cytotoxicity is on record as −25%. Further, in the series on TPM mutagenicity, the Mutagenicity is −46% and the “mutagenicity … (in words)” value was “reduced”.

Take `CC(=O)[O-].CC(=O)[O-].CC(=O)[O-].O.[Lu+3]` [8.2% Lu(OAc)3•H2O, Lu(OAc)3•H2O]: in series [1], the HQ was −49%, the Naphthalene is −33%, the catechol is given as −33% and the resorcinol is reported as −39%. Besides, the Cytotoxicity entry in the series with TPM cytotoxicity is “— (No significant change (absolute change <20%))”. In the series with TPM mutagenicity, the Mutagenicity entry is “— (No significant change (absolute change <20%))” and the “mutagenicity … (in words)” value was “reduced”.
